We go through 5 molecules from paper PMC4877593, “Design and Synthesis of Potent in Vitro and in Vivo Anticancer Agents Based on 1-(3′,4′,5′-Trimethoxyphenyl)-2-Aryl-1H-Imidazole” (Scientific Reports, 2016).

Like-named read-outs stand apart in the source and are kept apart here.

Data set [1] deals with panel of seven human tumor cell lines. As to conditions: previously published triazole; ref 16d; read-out: IC50 values in the same seven cell lines (range); cited from earlier work.
Data set [2] has as its system tubulin. As to conditions: read-out: IC50 inhibitor of tubulin polymerization; cited from earlier work.
The subject of data set [3] is NCI-H460 (human lung large cell carcinoma). Conditions: cited from earlier work.
The test system of data set [4] is HCT-15 (human colon adenocarcinoma). Conditions: cited from earlier work.
The test system of data set [5] is HL-60. The data set is described as follows: In vitro antiproliferative activity (MTT), HL-60. It is filed as cell-based. As to conditions: Homo sapiens, tumor cell proliferation, 72 h, mean ± SE.
The subject of data set [6] is panel of seven human tumor cell lines. Description: Antiproliferative activity across the panel of seven human tumor cell lines. The data set is classed as cell-based. The procedure:
(§1) Human T-cell leukemia (CCRF-CEM and Jurkat) and human B-cell leukemia (SEM) cells were grown in RPMI-1640 medium (Gibco, Milano, Italy). Breast adenocarcinoma (MCF7), human cervix carcinoma (HeLa), and human colon adenocarcinoma (HT-29) cells were grown in DMEM medium (Gibco, Milano, Italy), all supplemented with 115 units/mL penicillin G (Gibco, Milano, Italy), 115 μg/mL streptomycin (Invitrogen, Milano, Italy), and 10% fetal bovine serum (Invitrogen, Milano, Italy). Stock solutions (10 mM) of the different compounds were obtained by dissolving them in dimethyl sulfoxide (DMSO). Individual wells of a 96-well tissue culture microtiter plate were inoculated with 100 μL of complete medium containing 8 × 10^3 cells. The plates were incubated at 37 °C in a humidified 5% CO2 incubator for 18 h prior to the experiments. After medium removal, 100 μL of fresh medium containing the test compound at different concentrations was added to each well in triplicate and incubated at 37 °C for 72 h. The percentage of DMSO in the medium never exceeded 0.25%. This was also the maximum DMSO concentration in all cell-based assays described below. […] Different concentrations of the test compounds were added, and viability was determined 72 h later by the MTT test. For cytotoxicity evaluations in resting PBL cultures, non-adherent cells were resuspended (5 × 10^5 cells/mL) and treated for 72 h with the test compounds, as described above.

Data set [7] deals with A549. The data set is described as follows: In vitro antiproliferative activity (MTT), A549. It is filed as cell-based. As to conditions: Homo sapiens, tumor cell proliferation, 72 h, mean ± SE. The procedure:
as §1

Data set [8] has as its system MCF-7. The data set is described as follows: In vitro antiproliferative activity (MTT), MCF-7. As to conditions: Homo sapiens, MCF7, tumor cell proliferation, 72 h, mean ± SE. It is filed as cell-based. The procedure: as §1
The test system of data set [9] is RS4;11. The data set is described as follows: In vitro antiproliferative activity (MTT), RS4;11. It is filed as cell-based. As to conditions: Homo sapiens, tumor cell proliferation, 72 h, mean ± SE.
Data set [10] relates to HT-29. The data set is described as follows: In vitro antiproliferative activity (MTT), HT-29. Conditions: Homo sapiens, tumor cell proliferation, 72 h, mean ± SE. The data set is classed as cell-based. As for the experimental part:
as §1

Data set [11] concerns Jurkat. The data set is described as follows: In vitro antiproliferative activity (MTT), Jurkat. The data set is classed as cell-based. As to conditions: Homo sapiens, tumor cell proliferation, 72 h, mean ± SE. As for the experimental part:
as §1

Data set [12] relates to HeLa. The data set is described as follows: In vitro antiproliferative activity (MTT), HeLa. It is filed as cell-based. Conditions: Homo sapiens, tumor cell proliferation, 72 h, mean ± SE. As for the experimental part:
as §1

Data set [13] deals with bovine brain tubulin. Description: Inhibition of tubulin polymerization (turbidimetry). It is filed as biochemical. The procedure:
To evaluate the effect of the compounds on tubulin assembly in vitro[22], varying concentrations of compounds were preincubated with 10 μM bovine brain tubulin in glutamate buffer at 30 °C and then cooled to 0 °C. After addition of 0.4 mM GTP (final concentration), the mixtures were transferred to 0 °C cuvettes in a recording spectrophotometer equipped with an electronic temperature controller and warmed to 30 °C. Tubulin assembly was followed turbidimetrically at 350 nm. […] The ability of the test compounds to inhibit colchicine binding to tubulin was measured as described, except that the reaction mixtures contained 1 μM tubulin, 5 μM [^3H]colchicine and 1 or 5 μM test compound.

Data set [14] concerns tubulin. Description: Inhibition of [3H]colchicine binding to tubulin. On the set-up: species or system bovine. Conditions: tubulin 1 μM, [3H]colchicine 5 μM.
Experimental: The ability of the test compounds to inhibit colchicine binding to tubulin was measured as described[22], except that the reaction mixtures contained 1 μM tubulin, 5 μM [^3H]colchicine and 1 or 5 μM test compound.
[15] abbreviates: average over the seven cell lines, read-out: average IC50 values.
Where [16] appears, read: range over seven cancer cell lines, read-out: IC50 values in the seven cell lines (range).
The mark [17] stands for this setting: tubulin at 10 μM, 20 min incubation, read-out: Tubulin assembly IC50 ± S.D.

The term IC50 denotes the point on the concentration scale where inhibition reaches its midpoint. Broadly, the melting point is the temperature of the solid-liquid transition.

Regarding “1-(3′,4′,5′-trimethoxyphenyl)-5-(3′-chloro-4′-ethoxyphenyl) triazole”, the IC50 in data set [1] was 3 to 20 nM.

Take `COc1cc(-n2ccnc2-c2ccc(N(C)C)cc2)cc(OC)c1OC` [Compound 3a, 1-(3′,4′,5′-trimethoxyphenyl)-2-(4′-N,N-dimethylaminophenyl)-1H-imidazole]: the IC50 in data set [2] was 35000 nM; in [3] it was 270 nM; in [4] it was 80 nM.

`COc1ccc(-c2nccn2-c2cc(OC)c(OC)c(OC)c2)cc1` [Compound 3b, reference compound]: the IC50 is 4770 ± 120 nM in data set [5]; 1710 nM in [6] (setting [15]); 210 to 5400 nM in [6] (setting [16]); 1010 ± 104 nM in data set [7]; 230 ± 55 nM in data set [8]; 5400 ± 950 nM in data set [9]. Also, the IC50 was 233 ± 52 nM in data set [10]; 133 ± 31 nM in data set [11]; 1100 nM in data set [3]; 1600 nM in data set [4]; 210 ± 10.2 nM in [12].

Take `COc1cc(-n2ccnc2-c2ccc3ccccc3c2)cc(OC)c1OC` [Compound 3c, reference compound]: the IC50 in [5] is 24 ± 12.1 nM; in data set [13] (repeated beside the calculated energies, read-out: inhibition of tubulin polymerization IC50 (Table 4)) it was 1800 nM; in data set [13] (setting [17]), 1800 nM; in [6] (setting [15]), 15 nM; in [6] (setting [16]), 2 to 62.3 nM; in data set [7], 7.1 ± 1.5 nM. The IC50 in data set [8] is 4.6 ± 2.3 nM; in [9], 62.3 ± 10.3 nM; in data set [10], 3.6 ± 0.9 nM; in [11], 2.5 ± 0.9 nM; in data set [3], 57 nM; in [4], 51 nM. In addition, in data set [12], the IC50 came to 2 ± 0.14 nM. Also, the “Colchicine binding % inhibition ± S.D., 5 μM drug” value in data set [14] is recorded as 65 ± 4%.

Molecule `CCOc1ccc(-c2nccn2-c2cc(OC)c(OC)c(OC)c2)cc1F` [Compound 4n, 2-(3′-Fluoro-4′-ethoxyphenyl)-1-(3′,4′,5′-trimethoxyphenyl)-1H-imidazole] registered a melting point of 127 to 129 °C. Further, half-maximal inhibition in [5] (IC50) was put at 3.5 ± 0.73 nM. For the same molecule, the concentration for half-maximal inhibition (IC50) in [13] (setting [17]) stood at 570 nM. Also, the 50% inhibitory concentration (IC50) in [6] (setting [15]) is 7.2 nM. The IC50 in data set [6] (setting [16]) lay in the range of 1.5 to 14.2 nM. Also, in data set [7], half-maximal inhibition (IC50) required 14 ± 2.3 nM. Also, half-maximal inhibition in data set [8] (IC50) was put at 3.4 ± 0.38 nM. In data set [9], this molecule registered a half-maximal inhibitory concentration (IC50) of 8.6 ± 1.1 nM. In data set [10], this molecule displayed a half-maximal inhibitory concentration (IC50) of 7.5 ± 1.2 nM. Half-maximal inhibition in [11] (IC50) was put at 12 ± 6.6 nM. Besides, the half-inhibitory concentration (IC50) in data set [12] came to 1.5 ± 0.32 nM.
